The values below are quoted from earlier work in patent US20070148100A1 (priority 2005, published 2007).

One data set deals with T1, 5-HT1A receptor (Homo sapiens, UniProt P08908).
T1 sequence (P08908 1-422): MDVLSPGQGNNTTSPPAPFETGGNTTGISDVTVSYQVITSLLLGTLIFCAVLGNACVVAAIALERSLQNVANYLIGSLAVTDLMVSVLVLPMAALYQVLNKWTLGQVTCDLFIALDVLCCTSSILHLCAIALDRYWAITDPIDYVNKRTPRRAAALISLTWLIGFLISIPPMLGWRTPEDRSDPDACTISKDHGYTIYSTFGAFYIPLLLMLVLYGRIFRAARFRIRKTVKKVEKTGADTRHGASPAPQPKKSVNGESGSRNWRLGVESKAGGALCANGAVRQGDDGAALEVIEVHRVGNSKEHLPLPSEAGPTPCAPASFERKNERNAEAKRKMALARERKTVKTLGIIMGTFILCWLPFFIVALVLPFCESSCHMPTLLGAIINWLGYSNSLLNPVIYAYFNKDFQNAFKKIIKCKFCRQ

In another data set the target is 5-HT2A receptor (Homo sapiens, UniProt P28223).
Chain of 5-HT2A receptor (P28223 whole entry): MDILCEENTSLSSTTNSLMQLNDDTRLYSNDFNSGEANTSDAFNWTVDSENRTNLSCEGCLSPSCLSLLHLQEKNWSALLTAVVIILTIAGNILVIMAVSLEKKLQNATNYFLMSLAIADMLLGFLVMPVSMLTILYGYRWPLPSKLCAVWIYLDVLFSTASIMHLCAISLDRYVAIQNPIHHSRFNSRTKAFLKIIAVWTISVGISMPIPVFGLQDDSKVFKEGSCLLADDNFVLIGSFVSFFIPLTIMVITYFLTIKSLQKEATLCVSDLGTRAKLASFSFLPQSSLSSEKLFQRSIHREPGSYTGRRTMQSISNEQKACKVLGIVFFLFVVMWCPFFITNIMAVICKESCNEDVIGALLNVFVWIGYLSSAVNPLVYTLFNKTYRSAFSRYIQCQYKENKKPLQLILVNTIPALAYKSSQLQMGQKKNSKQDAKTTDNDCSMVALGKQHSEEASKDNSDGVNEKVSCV
Data set [1] has as its system alpha-adrenergic receptors.
Data set [2] has as its system cholinergic muscarinic receptors.

Take `O=C1CCc2ccc(OCCCCN3CCN(c4cccc(Cl)c4Cl)CC3)cc2N1` [Aripiprazole, 7-[4-[4-(2,3-dichlorophenyl)-1-piperazinyl]butoxy]-3,4-dihydrocarbostyril]: the “activity at the 5-HT1A receptor” value at 5-HT1A receptor is on record as “partial agonist”. On 5-HT2A receptor, the “activity at the 5-HT2A receptor” value was “antagonist profile”. Besides, in the data set on histamine receptors, the “affinity for histamine receptors” value was “moderate affinity”. For the same molecule, the “affinity for alpha-adrenergic receptors” value in data set [1] was “moderate affinity”. Moreover, the “affinity for cholinergic muscarinic receptors” value in data set [2] is given as “no appreciable affinity”. Moreover, under “in vivo”, the elimination half-life entry is given as “approximately 75 hours” and the “kinetics (linearity)” value was “linear kinetics”. Further, under “oral tablets”, the bioavailability entry is on record as “about 90%”.
